{"source": "patent US12226520B2", "about": "“Self-fueled particles for propulsion through flowing aqueous fluids” (The University of British Columbia, priority 2013, dated 2025)", "key": {"flowing plasma": {"tested_on": "flowing plasma", "assay": "Clotting and occlusion of plasma flowing through a glass capillary tube", "assay_type": "biochemical", "experimental": "To show propelling thrombin particles clotting flowing plasma, particles were applied to the bottom of plasma flowing through a glass capillary tube (FIG. 3D,E). A microfluidic system was used to control the flow of plasma, and monitor the flow to determine when clotting occluded flow in the capillary tube. At flow velocities between 0.006 and 3.4 mm/s, the background occlusion times in the system were approximately 30 min. […] At high flows, the clot was easily pushed out and the flow of plasma resumed. […] The particles propelled upwards, against flow, and accumulated high within the tubing. Clotting was seen to initiate at regions with the highest concentration of particles."}, "[1]": {"tested_on": "platelet-poor blood plasma", "assay": "Clot initiation in a 25 mm column of non-flowing platelet-poor blood plasma", "assay_type": "biochemical", "experimental": "Thr-CaCO3 was mixed at a 1:1 mass ratio with TXA-NH3^+ to yield a propelling particle mixture. A non-propelling mixture consisted of a 1:1 ratio of Thr-CaCO3 with lyophilized TXA-NH2. The ability of the two mixtures to initiate clotting in platelet-poor blood plasma was measured and compared against addition of a similar amount of thrombin (approximately 1 pmol) in HEPES buffer and a control receiving no treatment.\nThe ability of particles to clot both at the site of application and below the site was assessed by injecting particles near the top of a column of plasma that was 25 mm tall. Initiation of clotting was measured both at the top and the bottom of the column by monitoring the formation of fibrin. The blood plasma was laced with green-fluorescent beads in order to monitor movement and formation of solid fibrin mesh and clot initiation. Clotting at the top was measured visually, and when the plasma became opaque or appeared gelled, clotting was confirmed by gentle manipulation with a micropipette.\nBoth propelling and non-propelling particles immediately clotted plasma at the top of the column, which was detected within 2 min. The same response occurred when a solution containing an equivalent amount of dissolved thrombin was added. However, there were much larger differences in the clot times at the bottom of the columns of plasma between these samples.\nClotting took about 30 min, as the clot needed to propagate down through the column by diffusion. Clotting at the bottom was faster using non-propelled particles, occurring in 3.7 min as compared to 10 min for the propelled particles. […] Most propelled particles reacted and produced gas at the top so only a fraction of the particles sank to the bottom yielding a slightly slower clot time compared to non-propelling particles. Although the propelled particles out-performed the thrombin solution in this assay, a particular advantage for the propelling particles would come from an ability to propel though flowing solutions."}}}
{"substance": "thrombin [thrombin solution]", "values": [{"measurement": "flow velocity up to which occlusion occurred", "setting": "flowing plasma", "value": "up to 0.06 mm/s"}, {"measurement": "occlusion versus controls at 0.6 mm/s", "setting": "flowing plasma; flow velocity 0.6 mm/s", "value": "no difference from controls"}, {"measurement": "acceleration of clot initiation at the bottom compared to the control", "setting": "[1]; bottom of 25 mm column", "value": "no acceleration of clot initiation"}, {"measurement": "clot time at the bottom of the column", "setting": "[1]; bottom of 25 mm column, non-flowing plasma", "value": "about 30 min"}, {"measurement": "clot time at the top of the column", "setting": "[1]; site of application, non-flowing plasma", "value": "same response"}]}
